Assay: Measurement of pKa of ethanolamine (potentiometric titration)
Settings: aqueous solution of the ethanolamine

## COCCOCCN(CCOCCOC)CCOCCOC [Tris[2-(2-methoxyethoxy)ethyl]amine, tris[2-(2-methoxyethoxy)ethyl]amine]
  pKa: 7.48

Source: patent publication US11345825B2, “Aqueous pigment dispersion” (KAO CORPORATION, priority 2016, dated 2022)
